Test results taken from US12077503B2, “Substituted cyclic amides and their use as herbicides” (FMC CORPORATION, priority 2015, dated 2024).

What was measured:
Type in all cases: in vivo
[1] = system: redroot pigweed (Amaranthus retroflexus); experiment: Test G Post-Emergence Protocol; settings: Amaranthus retroflexus, post-emergence, 312 h, read-out: Pigweed, Redroot damage rating; for pest or weed control at 15.625 g/ha: 15.625 g ai/ha, evaluated after 13 days (100=total damage to plant; 0=no damage to plant); for pest or weed control at 62.5 g/ha: 62.5 g ai/ha; for pest or weed control at 62.5 g/ha / pest or weed control at 250 g/ha: evaluated after 13 days, 100=total damage to plant, 0=no damage to plant; for pest or weed control at 250 g/ha: 250 g ai/ha
In short: (§1)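 Post-emergence herbicidal damage, scored visually 0–100 at 13 days. Application at 15.625, 62.5 or 250 g/ha onto 8-day-old plants grown under glasshouse control.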

[2] = system: barnyardgrass (Echinochloa crus-galli); experiment: Test G Post-Emergence Protocol; settings: Echinochloa crus-galli, post-emergence, 312 h, read-out: Barnyardgrass damage rating; for pest or weed control at 15.625 g/ha: 15.625 g ai/ha, evaluated after 13 days (100=total damage to plant; 0=no damage to plant); for pest or weed control at 62.5 g/ha: 62.5 g ai/ha; for pest or weed control at 62.5 g/ha / pest or weed control at 250 g/ha: evaluated after 13 days, 100=total damage to plant, 0=no damage to plant; for pest or weed control at 250 g/ha: 250 g ai/ha
In short: as §1

corn (Zea mays) [3] = experiment: Test G Post-Emergence Protocol; settings: Zea mays, post-emergence, 312 h, read-out: Corn damage rating; for plant injury at 15.625 g/ha: 15.625 g ai/ha, evaluated after 13 days (100=total damage to plant; 0=no damage to plant); for plant injury at 62.5 g/ha: 62.5 g ai/ha; for plant injury at 62.5 g/ha / plant injury at 250 g/ha: evaluated after 13 days, 100=total damage to plant, 0=no damage to plant; for plant injury at 250 g/ha: 250 g ai/ha
In short: as §1

[4] = system: ivy-leaved morning glory (Ipomoea hederacea); experiment: Test G Post-Emergence Protocol; settings: Ipomoea, post-emergence, 312 h, read-out: Morningglory, Ivy-leaved damage rating; for pest or weed control at 15.625 g/ha: 15.625 g ai/ha, evaluated after 13 days (100=total damage to plant; 0=no damage to plant); for pest or weed control at 62.5 g/ha: 62.5 g ai/ha; for pest or weed control at 62.5 g/ha / pest or weed control at 250 g/ha: evaluated after 13 days, 100=total damage to plant, 0=no damage to plant; for pest or weed control at 250 g/ha: 250 g ai/ha
In short: as §1

[5] = system: velvetleaf (Abutilon theophrasti); experiment: Test G Post-Emergence Protocol; settings: Abutilon theophrasti, post-emergence, 312 h, read-out: Velvetleaf damage rating; for pest or weed control at 15.625 g/ha: 15.625 g ai/ha, evaluated after 13 days (100=total damage to plant; 0=no damage to plant); for pest or weed control at 62.5 g/ha: 62.5 g ai/ha; for pest or weed control at 62.5 g/ha / pest or weed control at 250 g/ha: evaluated after 13 days, 100=total damage to plant, 0=no damage to plant; for pest or weed control at 250 g/ha: 250 g ai/ha
In short: as §1

[6] = system: giant foxtail (Setaria faberi); experiment: Test G Post-Emergence Protocol; settings: Setaria faberi, post-emergence, 312 h, read-out: Foxtail, Giant damage rating; for pest or weed control at 15.625 g/ha: 15.625 g ai/ha, evaluated after 13 days (100=total damage to plant; 0=no damage to plant); for pest or weed control at 62.5 g/ha: 62.5 g ai/ha; for pest or weed control at 62.5 g/ha / pest or weed control at 250 g/ha: evaluated after 13 days, 100=total damage to plant, 0=no damage to plant; for pest or weed control at 250 g/ha: 250 g ai/ha
In short: as §1

[7] = system: redroot pigweed (Amaranthus retroflexus); experiment: Test G Pre-Emergence Protocol; settings: Amaranthus retroflexus, pre-emergence, 312 h, evaluated after 13 days; for pest or weed control at 15.625 g/ha: 15.625 g ai/ha; for pest or weed control at 15.625 g/ha / pest or weed control at 250 g/ha: read-out: Pigweed, Redroot damage rating (100=total damage to plant; 0=no damage to plant); for pest or weed control at 62.5 g/ha: 62.5 g ai/ha, 100=total damage to plant, 0=no damage to plant, read-out: Pigweed, Redroot damage rating; for pest or weed control at 250 g/ha: 250 g ai/ha
In short: (§2)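 Scores are visual damage ratings from 0 (no damage) to 100 (total plant kill), taken 13 days after treatment. Compound was sprayed one day post-sowing at 15.625, 62.5 or 250 g/ha in 50:50 acetone/water with 0.5% Tween 20.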

[8] = system: barnyardgrass (Echinochloa crus-galli); experiment: Test G Pre-Emergence Protocol; settings: Echinochloa crus-galli, pre-emergence, 312 h, evaluated after 13 days; for pest or weed control at 15.625 g/ha: 15.625 g ai/ha; for pest or weed control at 15.625 g/ha / pest or weed control at 250 g/ha: read-out: Barnyardgrass damage rating (100=total damage to plant; 0=no damage to plant); for pest or weed control at 62.5 g/ha: 62.5 g ai/ha, 100=total damage to plant, 0=no damage to plant, read-out: Barnyardgrass damage rating; for pest or weed control at 250 g/ha: 250 g ai/ha
In short: as §2

corn (Zea mays) [9] = experiment: Test G Pre-Emergence Protocol; settings: Zea mays, pre-emergence, 312 h, evaluated after 13 days; for plant injury at 15.625 g/ha: 15.625 g ai/ha; for plant injury at 15.625 g/ha / plant injury at 250 g/ha: read-out: Corn damage rating (100=total damage to plant; 0=no damage to plant); for plant injury at 62.5 g/ha: 62.5 g ai/ha, 100=total damage to plant, 0=no damage to plant, read-out: Corn damage rating; for plant injury at 250 g/ha: 250 g ai/ha
In short: as §2

[10] = system: ivy-leaved morning glory (Ipomoea hederacea); experiment: Test G Pre-Emergence Protocol; settings: Ipomoea, pre-emergence, 312 h, evaluated after 13 days; for pest or weed control at 15.625 g/ha: 15.625 g ai/ha; for pest or weed control at 15.625 g/ha / pest or weed control at 250 g/ha: read-out: Morningglory, Ivy-leaved damage rating (100=total damage to plant; 0=no damage to plant); for pest or weed control at 62.5 g/ha: 62.5 g ai/ha, 100=total damage to plant, 0=no damage to plant, read-out: Morningglory, Ivy-leaved damage rating; for pest or weed control at 250 g/ha: 250 g ai/ha
In short: as §2

[11] = system: velvetleaf (Abutilon theophrasti); experiment: Test G Pre-Emergence Protocol; settings: Abutilon theophrasti, pre-emergence, 312 h, evaluated after 13 days; for pest or weed control at 15.625 g/ha: 15.625 g ai/ha; for pest or weed control at 15.625 g/ha / pest or weed control at 250 g/ha: read-out: Velvetleaf damage rating (100=total damage to plant; 0=no damage to plant); for pest or weed control at 62.5 g/ha: 62.5 g ai/ha, 100=total damage to plant, 0=no damage to plant, read-out: Velvetleaf damage rating; for pest or weed control at 250 g/ha: 250 g ai/ha
In short: as §2

[12] = system: giant foxtail (Setaria faberi); experiment: Test G Pre-Emergence Protocol; settings: Setaria faberi, pre-emergence, 312 h, evaluated after 13 days; for pest or weed control at 15.625 g/ha: 15.625 g ai/ha; for pest or weed control at 15.625 g/ha / pest or weed control at 250 g/ha: read-out: Foxtail, Giant damage rating (100=total damage to plant; 0=no damage to plant); for pest or weed control at 62.5 g/ha: 62.5 g ai/ha, 100=total damage to plant, 0=no damage to plant, read-out: Foxtail, Giant damage rating; for pest or weed control at 250 g/ha: 250 g ai/ha
In short: as §2

SMILES	pest or weed control at 15.625 g/ha [1]	pest or weed control at 62.5 g/ha [1]	pest or weed control at 250 g/ha [1]	pest or weed control at 15.625 g/ha [2]	pest or weed control at 62.5 g/ha [2]	pest or weed control at 250 g/ha [2]	plant injury at 15.625 g/ha (corn (Zea mays) [3])	plant injury at 62.5 g/ha (corn (Zea mays) [3])	plant injury at 250 g/ha (corn (Zea mays) [3])	pest or weed control at 15.625 g/ha [4]	pest or weed control at 62.5 g/ha [4]	pest or weed control at 250 g/ha [4]	pest or weed control at 15.625 g/ha [5]	pest or weed control at 62.5 g/ha [5]	pest or weed control at 250 g/ha [5]	pest or weed control at 15.625 g/ha [6]	pest or weed control at 62.5 g/ha [6]	pest or weed control at 250 g/ha [6]	pest or weed control at 15.625 g/ha [7]	pest or weed control at 62.5 g/ha [7]	also measured
CCc1cc([C@@H]2CN(C)C(=O)[C@H]2C(=O)Nc2cccc(F)c2C)ccc1Cl (racemic) [Compound 1804]	0%	0%	10%	0%	50%	60%	0%	0%	70%	0%	50%	60%	0%	10%	10%	0%	70%	80%	0%	20%	pest or weed control at 250 g/ha [7]: 30%; pest or weed control at 15.625 g/ha [8]: 0%; pest or weed control at 62.5 g/ha [8]: 80%; pest or weed control at 250 g/ha [8]: 90%; plant injury at 15.625 g/ha (corn (Zea mays) [9]): 0%; plant injury at 62.5 g/ha (corn (Zea mays) [9]): 0%; plant injury at 250 g/ha (corn (Zea mays) [9]): 60%; pest or weed control at 15.625 g/ha [10]: 0%; pest or weed control at 62.5 g/ha [10]: 0%; pest or weed control at 250 g/ha [10]: 10%; pest or weed control at 15.625 g/ha [11]: 0%; pest or weed control at 62.5 g/ha [11]: 10%; pest or weed control at 250 g/ha [11]: 30%; pest or weed control at 15.625 g/ha [12]: 50%; pest or weed control at 62.5 g/ha [12]: 90%; pest or weed control at 250 g/ha [12]: 90%
CN1C[C@H](c2cccc(C(F)(F)F)c2)[C@@H](C(=O)Nc2cccc(O)c2F)C1=O (racemic) [Compound 1806]	0%	0%	0%	0%	20%	50%	0%	0%	40%	0%	0%	0%	0%	0%	0%	0%	60%	60%	0%	0%	pest or weed control at 250 g/ha [7]: 10%; pest or weed control at 15.625 g/ha [8]: 0%; pest or weed control at 62.5 g/ha [8]: 10%; pest or weed control at 250 g/ha [8]: 20%; plant injury at 15.625 g/ha (corn (Zea mays) [9]): 0%; plant injury at 62.5 g/ha (corn (Zea mays) [9]): 0%; plant injury at 250 g/ha (corn (Zea mays) [9]): 0%; pest or weed control at 15.625 g/ha [10]: 0%; pest or weed control at 62.5 g/ha [10]: 0%; pest or weed control at 250 g/ha [10]: 0%; pest or weed control at 15.625 g/ha [11]: 0%; pest or weed control at 62.5 g/ha [11]: 0%; pest or weed control at 250 g/ha [11]: 0%; pest or weed control at 15.625 g/ha [12]: 20%; pest or weed control at 62.5 g/ha [12]: 20%; pest or weed control at 250 g/ha [12]: 30%
CN1C[C@H](c2ccc(C(F)(F)F)cc2)[C@@H](C(=O)Nc2ccc[n+]([O-])c2C(F)(F)F)C1=O (racemic) [Compound 1813]	0%	0%	20%	0%	0%	0%	0%	0%	0%	0%	10%	40%	0%	0%	10%	0%	0%	20%	0%	0%	pest or weed control at 250 g/ha [7]: 20%; pest or weed control at 15.625 g/ha [8]: 0%; pest or weed control at 62.5 g/ha [8]: 0%; pest or weed control at 250 g/ha [8]: 10%; plant injury at 15.625 g/ha (corn (Zea mays) [9]): 0%; plant injury at 62.5 g/ha (corn (Zea mays) [9]): 0%; plant injury at 250 g/ha (corn (Zea mays) [9]): 0%; pest or weed control at 15.625 g/ha [10]: 0%; pest or weed control at 62.5 g/ha [10]: 0%; pest or weed control at 250 g/ha [10]: 20%; pest or weed control at 15.625 g/ha [11]: 0%; pest or weed control at 62.5 g/ha [11]: 0%; pest or weed control at 250 g/ha [11]: 30%; pest or weed control at 15.625 g/ha [12]: 0%; pest or weed control at 62.5 g/ha [12]: 10%; pest or weed control at 250 g/ha [12]: 90%
